For four compounds, IC50 results are on record in patent US20240174690A1, “ANNULATED 2-AMINO-3-CYANO THIOPHENES AND DERIVATIVES FOR THE TREATMENT OF CANCER” (BOEHRINGER INGELHEIM INTERNATIONAL GMBH, priority 2021, published 2024).

One may read the IC50 as the point on the concentration scale where inhibition reaches its midpoint. High values mean a need for much substance, low ones inhibition by little substance.

Assay [1] deals with A375 cells. The assay can be described thus: A375 CTG proliferation assay (120 h) (melanoma, wt, B-Raf mutant, negative control). Format: cell-based. The following applies: Homo sapiens, A-375, CTG 120 h. In outline: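 Cells seeded at 300/well in DMEM + 10% FCS, dosed next day with a logarithmic dilution series and incubated 120 h at 37 °C. Viability read by CellTiter-Glo luminescence as percent of DMSO control; IC50 from four-parameter nonlinear regression.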

Assay [2] deals with KRAS (WT)::SOS1 (Homo sapiens (Human), UniProt P01116, C118S). The assay can be described thus: KRAS::SOS1 AlphaScreen binding assay, KRAS WT. In outline: (§1)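 AlphaScreen measurement of compound disruption of biotinylated, GDP-loaded KRAS 1-169 (10 nM; G12C 7.5 nM) binding to GST-SOS1 564-1049 (5 nM with G12D/G12C, 10 nM otherwise), with 10 μM GDP in PBS/0.1% BSA/0.05% Tween 20. Timing was 30 min compound preincubation, then 60 min with beads at room temperature; top concentration 100 μM, 4-parameter IC50.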

For assay [3], the target named is KRAS (G12V)::SOS1 (Homo sapiens (Human), UniProt P01116, C118S/G12V). Description: KRAS::SOS1 AlphaScreen binding assay, KRAS G12V. In outline: as §1
In general terms: Bead proximity is the source of the signal in Alpha formats.

Assay [4] concerns the target KRAS (G13D)::SOS1 (Homo sapiens (Human), UniProt P01116, C118S/G13D). Description: KRAS::SOS1 AlphaScreen binding assay, KRAS G13D. In outline:
as §1

KRAS (WT)::SOS1, sequence (P01116 other isoform, or with tags, fused parts or gaps C118S): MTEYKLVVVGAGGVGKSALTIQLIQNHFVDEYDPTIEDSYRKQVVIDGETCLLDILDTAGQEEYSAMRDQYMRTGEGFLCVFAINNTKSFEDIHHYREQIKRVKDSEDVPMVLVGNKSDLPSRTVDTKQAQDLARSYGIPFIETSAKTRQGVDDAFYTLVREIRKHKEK
KRAS (G12V)::SOS1, sequence (P01116 other isoform, or with tags, fused parts or gaps G12V/C118S): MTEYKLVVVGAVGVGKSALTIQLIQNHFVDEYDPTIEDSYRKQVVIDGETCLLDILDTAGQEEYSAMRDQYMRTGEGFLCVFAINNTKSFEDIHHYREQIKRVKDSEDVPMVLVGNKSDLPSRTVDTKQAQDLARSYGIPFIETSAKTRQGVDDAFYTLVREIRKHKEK
KRAS (G13D)::SOS1, sequence (P01116 other isoform, or with tags, fused parts or gaps G13D/C118S): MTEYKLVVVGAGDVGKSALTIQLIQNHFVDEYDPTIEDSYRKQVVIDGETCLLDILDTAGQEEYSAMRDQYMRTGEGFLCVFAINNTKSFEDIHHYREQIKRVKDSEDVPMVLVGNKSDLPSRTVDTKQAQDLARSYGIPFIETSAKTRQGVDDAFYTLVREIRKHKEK

In the case of `CNC(=O)c1ccn(-c2cc(O[C@@H](C)[C@@H]3CCCN3C)nc(-c3noc4c3CCC[C@@]43CCCc4sc(N)c(C#N)c43)n2)n1` [II-20], the results for the half-inhibitory concentration (IC50) in assay [1], in assay [2] and in assay [3] were > 3000 nM, 4 nM and 2 nM, respectively.

Take `C[C@H](Oc1cc([C@@H]2CCOC2)nc(-c2onc3c2CCC[C@@]32CCCc3sc(N)c(C#N)c32)n1)[C@@H]1CCCN1C` [I-22]: the half-maximal inhibitory concentration (IC50) in assay [1] is > 3000 nM; in assay [2], 3 nM.

Consider `C[C@H](Oc1cc(-n2ccc(C(=O)N3CCCC3)n2)nc(-c2noc3c2CCC[C@@]32CCCc3sc(N)c(C#N)c32)n1)[C@@H]1CCCN1C` [II-19], for which the figures for the IC50 in assay [1] and in assay [4] were 1120 nM and 9 nM, respectively.

Take `C[C@H](Oc1cc(-n2ccc(C(N)=O)n2)nc(-c2noc3c2CCC[C@@]32CCCc3sc(N)c(C#N)c32)n1)[C@@H]1CCCN1C` [II-21]: the IC50 in assay [1] is > 3000 nM; in assay [2], 3 nM; in assay [4], 12 nM; in assay [3], 1 nM.
